Results from ChEMBL document CHEMBL3822398, “Design, synthesis and in vitro biological evaluation of short-chain C12-sphinganine and its 1,2,3-triazole analogs as potential antimicrobial and anti-biofilm agents” (Eur J Med Chem, 2016).
Converted amounts (≈) assume the structure as drawn.

Columns and labels:
Format in all cases: functional
Micrococcus luteus [1] = assay: Antibacterial activity against Micrococcus luteus MTCC 2470 incubated for 24 hrs at 37 degC by well diffusion method; settings: MTCC 2470, 24 h
Raoultella planticola [2] = assay: Antibacterial activity against Klebsiella planticola MTCC 530 incubated for 24 hrs at 37 degC by well diffusion method; settings: MTCC 530, 24 h
Staphylococcus aureus [3] = assay: Bactericidal activity against Staphylococcus aureus MLS16 MTCC 2940 incubated for 24 hrs; settings: MLS16 MTCC 2940, 24 h
Staphylococcus aureus [4] = assay: Bactericidal activity against Staphylococcus aureus MTCC 96 incubated for 24 hrs; settings: MTCC 96, 24 h
Raoultella planticola [5] = assay: Bactericidal activity against Klebsiella planticola MTCC 530 incubated for 24 hrs; settings: MTCC 530, 24 h
Bacillus subtilis [6] = assay: Bactericidal activity against Bacillus subtilis MTCC 121 incubated for 24 hrs; settings: MTCC 121, 24 h
Staphylococcus aureus [7] = assay: Antibacterial activity against Staphylococcus aureus MTCC 96 incubated for 24 hrs at 37 degC by well diffusion method; settings: MTCC 96, 24 h
Escherichia coli [8] = assay: Antibacterial activity against Escherichia coli MTCC 739 incubated for 24 hrs at 37 degC by well diffusion method; settings: MTCC 739, 24 h
Staphylococcus aureus [9] = assay: Antibacterial activity against Staphylococcus aureus MLS16 MTCC 2940 incubated for 24 hrs at 37 degC by well diffusion method; settings: MLS16 MTCC 2940, 24 h
Escherichia coli [10] = assay: Bactericidal activity against Escherichia coli MTCC 739 incubated for 24 hrs; settings: MTCC 739, 24 h
Pseudomonas aeruginosa = assay: Antibacterial activity against Pseudomonas aeruginosa MTCC 2453 incubated for 24 hrs at 37 degC by well diffusion method; settings: MTCC 2453, 24 h
Bacillus subtilis [11] = assay: Antibacterial activity against Bacillus subtilis MTCC 121 incubated for 24 hrs at 37 degC by well diffusion method; settings: MTCC 121, 24 h
Micrococcus luteus [12] = assay: Bactericidal activity against Micrococcus luteus MTCC 2470 incubated for 24 hrs; settings: MTCC 2470, 24 h
Candida albicans [13] = assay: Antifungal activity against Candida albicans MTCC 183 incubated for 24 hrs at 30 degC by well diffusion method; settings: MTCC 183, 24 h
Pichia kudriavzevii [14] = assay: Fungicidal activity against Candida krusei MTCC 3020 incubated for 24 hrs; settings: MTCC 3020, 24 h
Candida albicans [15] = assay: Fungicidal activity against Candida albicans MTCC 227 incubated for 24 hrs; settings: MTCC 227, 24 h
Candida albicans [16] = assay: Fungicidal activity against Candida albicans MTCC 3958 incubated for 24 hrs; settings: MTCC 3958, 24 h
Candida albicans [17] = assay: Fungicidal activity against Candida albicans MTCC 7315 incubated for 24 hrs; settings: MTCC 7315, 24 h
Pichia sporocuriosa [18] = assay: Fungicidal activity against Issatchenkia hanoiensis MTCC 4755 incubated for 24 hrs; settings: MTCC 4755, 24 h
[Candida] aaseri [19] = Antifungal activity against Candida aaseri MTCC 1962 incubated for 24 hrs at 30 degC by well diffusion method; settings: Yamadazyma aaseri, MTCC 1962, 24 h
Candida albicans [20] = assay: Antifungal activity against Candida albicans MTCC 854 incubated for 24 hrs at 30 degC by well diffusion method; settings: MTCC 854, 24 h
Candida albicans [21] = assay: Fungicidal activity against Candida albicans MTCC 183 incubated for 24 hrs; settings: MTCC 183, 24 h
Candida albicans [22] = assay: Fungicidal activity against Candida albicans MTCC 1637 incubated for 24 hrs; settings: MTCC 1637, 24 h
Candida albicans [23] = assay: Antifungal activity against Candida albicans MTCC 3958 incubated for 24 hrs at 30 degC by well diffusion method; settings: MTCC 3958, 24 h
Pichia kudriavzevii [24] = assay: Antifungal activity against Candida krusei MTCC 3020 incubated for 24 hrs at 30 degC by well diffusion method; settings: MTCC 3020, 24 h
Candida albicans [25] = assay: Fungicidal activity against Candida albicans MTCC 4748 incubated for 24 hrs; settings: MTCC 4748, 24 h
Candida albicans [26] = assay: Antifungal activity against Candida albicans MTCC 4748 incubated for 24 hrs at 30 degC by well diffusion method; settings: MTCC 4748, 24 h
Candida albicans [27] = assay: Fungicidal activity against Candida albicans MTCC 3017 incubated for 24 hrs; settings: MTCC 3017, 24 h
Candida parapsilosis [28] = assay: Antifungal activity against Candida parapsilosis MTCC 1744 incubated for 24 hrs at 30 degC by well diffusion method; settings: Lodderomyces parapsilosis, MTCC 1744, 24 h
Candida parapsilosis [29] = assay: Fungicidal activity against Candida parapsilosis MTCC 1744 incubated for 24 hrs; settings: Lodderomyces parapsilosis, MTCC 1744, 24 h
Candida albicans [30] = assay: Antifungal activity against Candida albicans MTCC 3018 incubated for 24 hrs at 30 degC by well diffusion method; settings: MTCC 3018, 24 h
Candida albicans [31] = assay: Antifungal activity against Candida albicans MTCC 3017 incubated for 24 hrs at 30 degC by well diffusion method; settings: MTCC 3017, 24 h
Candida albicans [32] = assay: Fungicidal activity against Candida albicans MTCC 3018 incubated for 24 hrs; settings: MTCC 3018, 24 h
Nakaseomyces glabratus [33] = assay: Fungicidal activity against Candida glabrata MTCC 3019 incubated for 24 hrs; settings: MTCC 3019, 24 h
Candida albicans [34] = assay: Antifungal activity against Candida albicans MTCC 227 incubated for 24 hrs at 30 degC by well diffusion method; settings: MTCC 227, 24 h
[Candida] aaseri [35] = Fungicidal activity against Candida aaseri MTCC 1962 incubated for 24 hrs; settings: Yamadazyma aaseri, MTCC 1962, 24 h
Nakaseomyces glabratus [36] = assay: Antifungal activity against Candida glabrata MTCC 3019 incubated for 24 hrs at 30 degC by well diffusion method; settings: MTCC 3019, 24 h
Candida albicans [37] = assay: Antifungal activity against Candida albicans MTCC 7315 incubated for 24 hrs at 30 degC by well diffusion method; settings: MTCC 7315, 24 h
Candida albicans [38] = assay: Antifungal activity against Candida albicans MTCC 1637 incubated for 24 hrs at 30 degC by well diffusion method; settings: MTCC 1637, 24 h
Candida albicans [39] = assay: Fungicidal activity against Candida albicans MTCC 854 incubated for 24 hrs; settings: MTCC 854, 24 h
Pichia sporocuriosa [40] = assay: Antifungal activity against Issatchenkia hanoiensis MTCC 4755 incubated for 24 hrs at 30 degC by well diffusion method; settings: MTCC 4755, 24 h

## CCCCCCCCC[C@@H](O)[C@H](CO)n1cc(CCO)nn1
Micrococcus luteus [1]
  MIC: 15.6 µg/mL (≈ 49.8 µM)
Raoultella planticola [2]
  MIC: > 250 µg/mL
Staphylococcus aureus [3]
  MBC: > 250 µg/mL
Staphylococcus aureus [4]
  MBC: 31.2 µg/mL (≈ 99.5 µM)
Raoultella planticola [5]
  MBC: > 250 µg/mL
Bacillus subtilis [6]
  MBC: 31.2 µg/mL (≈ 99.5 µM)
Staphylococcus aureus [7]
  MIC: 31.2 µg/mL (≈ 99.5 µM)
Escherichia coli [8]
  MIC: > 250 µg/mL
Staphylococcus aureus [9]
  MIC: > 250 µg/mL
Escherichia coli [10]
  MBC: > 250 µg/mL
Pseudomonas aeruginosa
  MIC: > 250 µg/mL
Bacillus subtilis [11]
  MIC: 31.2 µg/mL (≈ 99.5 µM)
Micrococcus luteus [12]
  MBC: 31.2 µg/mL (≈ 99.5 µM)

## CCCCCCCCC[C@@H](O)[C@H](CO)n1cc(-c2ccc3cc(OC)ccc3c2)nn1
Micrococcus luteus [1]
  MIC: > 250 µg/mL
Raoultella planticola [2]
  MIC: > 250 µg/mL
Staphylococcus aureus [7]
  MIC: > 250 µg/mL
Escherichia coli [8]
  MIC: > 250 µg/mL
Staphylococcus aureus [9]
  MIC: > 250 µg/mL
Pseudomonas aeruginosa
  MIC: > 250 µg/mL
Bacillus subtilis [11]
  MIC: > 250 µg/mL

## CCCCCCCCC[C@@H](O)[C@@H](N)CO
Candida albicans [13]
  MIC: 15.6 µg/mL (≈ 71.8 µM)
Pichia kudriavzevii [14]
  MFC: 31.2 µg/mL (≈ 144 µM)
Candida albicans [15]
  MFC: 62.5 µg/mL (≈ 288 µM)
Candida albicans [16]
  MFC: 31.2 µg/mL (≈ 144 µM)
Candida albicans [17]
  MFC: 62.5 µg/mL (≈ 288 µM)
Pichia sporocuriosa [18]
  MFC: 15.6 µg/mL (≈ 71.8 µM)
[Candida] aaseri [19]
  MIC: 15.6 µg/mL (≈ 71.8 µM)
Candida albicans [20]
  MIC: 31.2 µg/mL (≈ 144 µM)
Candida albicans [21]
  MFC: 15.6 µg/mL (≈ 71.8 µM)
Candida albicans [22]
  MFC: 15.6 µg/mL (≈ 71.8 µM)
Candida albicans [23]
  MIC: 15.6 µg/mL (≈ 71.8 µM)
Pichia kudriavzevii [24]
  MIC: 15.6 µg/mL (≈ 71.8 µM)
Candida albicans [25]
  MFC: 31.2 µg/mL (≈ 144 µM)
Candida albicans [26]
  MIC: 31.2 µg/mL (≈ 144 µM)
Candida albicans [27]
  MFC: 31.2 µg/mL (≈ 144 µM)
Candida parapsilosis [28]
  MIC: 62.5 µg/mL (≈ 288 µM)
Micrococcus luteus [1]
  MIC: 3.9 µg/mL (≈ 17.9 µM)
Candida parapsilosis [29]
  MFC: 62.5 µg/mL (≈ 288 µM)
Candida albicans [30]
  MIC: 7.8 µg/mL (≈ 35.9 µM)
Raoultella planticola [2]
  MIC: 15.6 µg/mL (≈ 71.8 µM)
Staphylococcus aureus [3]
  MBC: 31.2 µg/mL (≈ 144 µM)
Candida albicans [31]
  MIC: 15.6 µg/mL (≈ 71.8 µM)
Candida albicans [32]
  MFC: 15.6 µg/mL (≈ 71.8 µM)
Nakaseomyces glabratus [33]
  MFC: 7.8 µg/mL (≈ 35.9 µM)
Staphylococcus aureus [4]
  MBC: > 250 µg/mL
Raoultella planticola [5]
  MBC: 31.2 µg/mL (≈ 144 µM)
Candida albicans [34]
  MIC: 31.2 µg/mL (≈ 144 µM)
[Candida] aaseri [35]
  MFC: 31.2 µg/mL (≈ 144 µM)
Bacillus subtilis [6]
  MBC: > 250 µg/mL
Nakaseomyces glabratus [36]
  MIC: 7.8 µg/mL (≈ 35.9 µM)
Candida albicans [37]
  MIC: 31.2 µg/mL (≈ 144 µM)
Staphylococcus aureus [7]
  MIC: > 250 µg/mL
Escherichia coli [8]
  MIC: 15.6 µg/mL (≈ 71.8 µM)
Staphylococcus aureus [9]
  MIC: 31.2 µg/mL (≈ 144 µM)
Escherichia coli [10]
  MBC: 31.2 µg/mL (≈ 144 µM)
Pseudomonas aeruginosa
  MIC: > 250 µg/mL
Candida albicans [38]
  MIC: 15.6 µg/mL (≈ 71.8 µM)
Candida albicans [39]
  MFC: 31.2 µg/mL (≈ 144 µM)
Bacillus subtilis [11]
  MIC: > 250 µg/mL
Micrococcus luteus [12]
  MBC: 7.8 µg/mL (≈ 35.9 µM)
Pichia sporocuriosa [40]
  MIC: 15.6 µg/mL (≈ 71.8 µM)

## CCCCCCCCC[C@@H](O)[C@H](CO)n1cc(CCCCCC)nn1
Micrococcus luteus [1]
  MIC: 7.8 µg/mL (≈ 22.1 µM)
Raoultella planticola [2]
  MIC: > 250 µg/mL
Staphylococcus aureus [3]
  MBC: > 250 µg/mL
Staphylococcus aureus [4]
  MBC: 3.9 µg/mL (≈ 11 µM)
Raoultella planticola [5]
  MBC: > 250 µg/mL
Bacillus subtilis [6]
  MBC: 15.6 µg/mL (≈ 44.1 µM)
Staphylococcus aureus [7]
  MIC: 3.9 µg/mL (≈ 11 µM)
Escherichia coli [8]
  MIC: > 250 µg/mL
Staphylococcus aureus [9]
  MIC: > 250 µg/mL
Escherichia coli [10]
  MBC: > 250 µg/mL
Pseudomonas aeruginosa
  MIC: > 250 µg/mL
Bacillus subtilis [11]
  MIC: 7.8 µg/mL (≈ 22.1 µM)
Micrococcus luteus [12]
  MBC: 15.6 µg/mL (≈ 44.1 µM)
